Values after ≈ are worked out from the molar mass of the structure shown.
How the values were obtained:
Type in all cases: functional
Streptomyces albus = test: Antibacterial activity against Streptomyces albus Del14 assessed as inhibition zone at 10 ug incubated for 2 days by disc diffusion assay; details: Del14, 48 h, time 2 day, read-out: IZ
Streptomyces lividans = test: Antibacterial activity against Streptomyces lividans SBT18 assessed as inhibition zone at 10 ug incubated for 2 days by disc diffusion assay; details: SBT18, 48 h, time 2 day, read-out: IZ
Streptomyces coelicolor = test: Antibacterial activity against Streptomyces coelicolor YF11 assessed as inhibition zone at 10 ug incubated for 2 days by disc diffusion assay; details: YF11, 48 h, time 2 day, read-out: IZ
Micrococcus luteus = test: Antibacterial activity against Micrococcus luteus SCSIO ML01 by Mueller-Hinton broth microdilution method

| SMILES | MIC (Micrococcus luteus) | zone of inhibition at 10 µg/disc (Streptomyces albus) | zone of inhibition at 10 µg/disc (Streptomyces lividans) | zone of inhibition at 10 µg/disc (Streptomyces coelicolor) |
| --- | --- | --- | --- | --- |
| C/C=C\C=C\[C@@H]1O[C@](O)([C@@H](CC)C(=O)NC/C=C/C=C(\C)[C@H](OC)[C@H](C)[C@@H]2O[C@H](/C=C/C=C/C=C(\C)C(=O)c3c(O)ccn(C)c3=O)[C@@H](O)[C@H]2O)[C@H](O)[C@H](O[C@H]2O[C@@H](C)[C@H](O[C@@H]3O[C@@H](C)[C@H](O)[C@@H](O)[C@H]3OC)[C@H](OC)[C@@H]2O)C1(C)C | 8 µg/mL (≈ 7.07 µM) | 15 mm | – | – |
| C/C=C\C=C\[C@@H]1O[C@](O)([C@H](CC)C(=O)NC/C=C/C=C(\C)[C@@H](OC)[C@@H](C)[C@H](O)[C@@H](O)/C=C/C=C/C=C/C=C(\C)C(=O)c2c(O)ccn(C)c2=O)[C@H](O)[C@H](O[C@H]2O[C@@H](C)[C@H](O[C@@H]3O[C@@H](C)[C@H](O)[C@@H](O)[C@H]3OC)[C@H](OC)[C@@H]2O)C1(C)C | 8 µg/mL (≈ 7.17 µM) | 15 mm | – | – |
| C/C=C\C=C\[C@@H]1O[C@](O)([C@H](CC)C(=O)NC/C=C/C=C(\C)[C@@H](OC)[C@@H](C)[C@H](O)[C@@H](O)\C=C/C=C/C=C/C=C(\C)C(=O)c2c(O)ccn(C)c2=O)[C@H](O)[C@H](O[C@H]2O[C@@H](C)[C@H](O[C@@H]3O[C@@H](C)[C@H](O)[C@@H](O)[C@H]3OC)[C@H](OC)[C@@H]2O)C1(C)C | 8 µg/mL (≈ 7.17 µM) | 15 mm | 8 mm | 8 mm |

More lines, main results first:

| MIC (Micrococcus luteus) | SMILES | zone of inhibition at 10 µg/disc (Streptomyces albus) | zone of inhibition at 10 µg/disc (Streptomyces lividans) | zone of inhibition at 10 µg/disc (Streptomyces coelicolor) |
| --- | --- | --- | --- | --- |
| 8 µg/mL (≈ 10.1 µM) | C/C=C\C=C\[C@@H]1O[C@](O)([C@H](CC)C(=O)NC/C=C/C=C(\C)[C@@H](OC)[C@@H](C)[C@H](O)[C@@H](O)\C=C/C=C/C=C/C=C(\C)C(=O)c2c(O)ccn(C)c2=O)[C@H](O)[C@H](O)C1(C)C | 15 mm | 8 mm | 8 mm |
| 8 µg/mL (≈ 7.07 µM) | C/C=C\C=C\[C@@H]1O[C@](O)([C@@H](CC)C(=O)NC/C=C/C=C(\C)[C@H](OC)[C@H](C)[C@@H]2O[C@H](/C=C/C=C/C=C(\C)C(=O)c3c(O)ccn(C)c3=O)[C@H](O)[C@H]2O)[C@H](O)[C@H](O[C@H]2O[C@@H](C)[C@H](O[C@@H]3O[C@@H](C)[C@H](O)[C@@H](O)[C@H]3OC)[C@H](OC)[C@@H]2O)C1(C)C | 15 mm | – | – |

Reference: ChEMBL document CHEMBL5215005, “Discovery of Efrotomycin Congeners and Heterologous Expression-Based Insights into the Self-Resistance Mechanism” (2022)
